Test results published in patent publication US7989464B2, “mGluR1 antagonists as therapeutic agents” (Schering Corporation, priority 2004, dated 2011).

molecular target: T1, hmGluR1 receptor (Homo sapiens, UniProt Q13255); test: IC50 determination: intracellular calcium mobilization (FLIPR) upon Quisqualate stimulation in CHO cells stably expressing hmGluR1; format: cell-based; details: against Quisqualate 1 μM (EC80), FLIPR calcium mobilization, read-out: IC50 Class
T1 construct: expressed in transfected cells
How it was run: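 CHO cells stably expressing hmGluR1 were kept overnight in DMEM high glucose with GPT and 1 mM pyruvate, then loaded 2 h with Calcium 3 dye.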

T1 sequence (Q13255 19-1194): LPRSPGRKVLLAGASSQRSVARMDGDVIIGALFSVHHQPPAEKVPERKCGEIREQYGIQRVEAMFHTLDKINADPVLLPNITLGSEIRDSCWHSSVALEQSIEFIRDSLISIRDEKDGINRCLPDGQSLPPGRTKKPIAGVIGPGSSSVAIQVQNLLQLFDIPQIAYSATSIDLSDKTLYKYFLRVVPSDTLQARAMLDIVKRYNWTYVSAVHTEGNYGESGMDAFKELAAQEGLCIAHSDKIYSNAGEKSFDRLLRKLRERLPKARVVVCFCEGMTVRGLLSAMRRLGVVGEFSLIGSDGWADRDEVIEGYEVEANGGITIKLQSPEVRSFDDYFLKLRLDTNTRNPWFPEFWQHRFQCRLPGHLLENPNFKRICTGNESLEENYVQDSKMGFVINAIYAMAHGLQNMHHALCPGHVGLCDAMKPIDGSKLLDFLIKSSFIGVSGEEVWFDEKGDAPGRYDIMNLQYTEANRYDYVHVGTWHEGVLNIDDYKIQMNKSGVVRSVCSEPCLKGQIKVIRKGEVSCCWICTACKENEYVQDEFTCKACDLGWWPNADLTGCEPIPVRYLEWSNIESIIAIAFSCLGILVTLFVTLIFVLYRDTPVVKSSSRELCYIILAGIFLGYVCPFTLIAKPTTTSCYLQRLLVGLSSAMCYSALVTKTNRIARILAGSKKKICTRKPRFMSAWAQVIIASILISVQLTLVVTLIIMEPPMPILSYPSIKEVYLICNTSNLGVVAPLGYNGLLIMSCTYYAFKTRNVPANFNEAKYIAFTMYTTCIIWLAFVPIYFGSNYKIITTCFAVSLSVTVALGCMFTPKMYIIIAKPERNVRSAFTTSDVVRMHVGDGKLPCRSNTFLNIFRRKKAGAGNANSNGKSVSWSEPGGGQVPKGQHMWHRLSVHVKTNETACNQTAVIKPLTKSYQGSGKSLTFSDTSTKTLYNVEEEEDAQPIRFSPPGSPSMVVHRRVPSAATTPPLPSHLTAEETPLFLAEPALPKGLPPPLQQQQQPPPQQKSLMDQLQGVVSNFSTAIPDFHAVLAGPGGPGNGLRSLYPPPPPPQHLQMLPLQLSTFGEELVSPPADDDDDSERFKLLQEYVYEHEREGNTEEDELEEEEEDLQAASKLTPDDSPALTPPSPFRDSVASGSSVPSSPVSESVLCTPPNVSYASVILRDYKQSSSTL

Row | IC50 [nM] | SMILES
1 | < 50 | CNc1ncnc2sc3c(=O)n(-c4ccc(Cl)cc4)cnc3c12 [95DB]
2 | < 50 | CNc1ncnc2sc3c(=O)n(-c4ccc(F)cc4)cnc3c12 [95DC]
3 | 150 to 1000 | O=c1c2sc3ncnc(NC4CCC4)c3c2ncn1-c1ccc(Cl)cc1 [95DD]
4 | 150 to 1000 | O=c1c2sc3ncnc(NC4CCC4)c3c2ncn1-c1ccc(F)cc1 [95DF]
5 | 150 to 1000 | Cc1ccc(-n2cnc3c(sc4ncnc(NC5CCC5)c43)c2=O)cc1 [95DH]
6 | < 50 | COCCNc1ncnc2sc3c(=O)n(-c4ccc(Cl)cc4)cnc3c12 [95DI]
7 | < 50 | COCCNc1ncnc2sc3c(=O)n(-c4ccc(C)cc4)cnc3c12 [95DJ]
8 | < 50 | O=c1c2sc3ncnc(NC4CC4)c3c2ncn1-c1ccc2c(c1)CCO2 [95DK]
9 | < 50 | Cc1ccc(-n2cnc3c(sc4ncnc(NCCCO)c43)c2=O)cc1 [95DL]
10 | < 50 | Cc1ccc(-n2cnc3c(sc4ncnc(NCCCCO)c43)c2=O)cc1 [95DN]
11 | 50 to 150 | Cc1ccc(-n2cnc3c(sc4ncnc(NCC5CC5)c43)c2=O)cc1 [95DP]
12 | 50 to 150 | O=c1c2sc3ncnc(NCC4CC4)c3c2ncn1-c1ccc(Cl)cc1 [95DR]
13 | 150 to 1000 | O=c1c2sc3ncnc(NCC4CC4)c3c2ncn1-c1ccc(Br)cc1 [95DS]
14 | < 50 | CN(c1ncnc2sc3c(=O)n(-c4ccc(Cl)cc4)cnc3c12)C1CC1 [95DU]
15 | < 50 | CN(c1ncnc2sc3c(=O)n(-c4ccc(Br)cc4)cnc3c12)C1CC1 [95DV]
16 | > 1000 | COCCn1cnc2c(sc3ncnc(NC4CCC4)c32)c1=O [95DW]
17 | > 1000 | COCCNc1ncnc2sc3c(=O)n(CCOC)cnc3c12 [95DX]
18 | > 1000 | COCCn1cnc2c(sc3ncnc(NCC(F)(F)F)c32)c1=O [95DY]
19 | < 50 | Cc1ccc(-n2cnc3c(sc4ncnc(N(C)C5CC5)c43)c2=O)cc1 [95DZ]
20 | > 1000 | COCCn1cnc2c(sc3ncnc(N(C)C)c32)c1=O [95EA]
21 | > 1000 | COCCn1cnc2c(sc3ncnc(NC4CC4)c32)c1=O [95EC]

Row | IC50 [nM] | SMILES
22 | < 50 | O=c1c2sc3ncnc(NCC(F)(F)F)c3c2ncn1-c1ccc(Br)cc1 [95EE]
23 | < 50 | O=c1c2sc3ncnc(NCC(F)(F)F)c3c2ncn1-c1ccc(Cl)cc1 [95EF]
24 | < 50 | C#CCNc1ncnc2sc3c(=O)n(-c4ccc(Cl)cc4)cnc3c12 [95EG]
25 | < 50 | C#CCNc1ncnc2sc3c(=O)n(-c4ccc(C)cc4)cnc3c12 [95EH]
26 | < 50 | C#CCNc1ncnc2sc3c(=O)n(-c4ccc(OC)cc4)cnc3c12 [95EI]
27 | 50 to 150 | C#CCNc1ncnc2sc3c(=O)n(-c4ccc(OC)cc4F)cnc3c12 [95EJ]
28 | 150 to 1000 | C#CCNc1ncnc2sc3c(=O)n(-c4ccc(OC)c(F)c4)cnc3c12 [95EK]
29 | < 50 | C#CCNc1ncnc2sc3c(=O)n(-c4ccc5scnc5c4)cnc3c12 [95EL]
30 | 150 to 1000 | C#CCNc1ncnc2sc3c(=O)n(-c4ccc5ncsc5c4)cnc3c12 [95EM]
31 | 50 to 150 | C#CCNc1ncnc2sc3c(=O)n(-c4ccc5c(c4)OCCO5)cnc3c12 [95EN]
32 | 50 to 150 | C#CCNc1ncnc2sc3c(=O)n(-c4ccc5c(c4)OCO5)cnc3c12 [95EO]
33 | 150 to 1000 | C#CCNc1ncnc2sc3c(=O)n(-c4ccc5sccc5c4)cnc3c12 [95EP]
34 | < 50 | C#CCNc1ncnc2sc3c(=O)n(-c4ccc(Br)cc4)cnc3c12 [95EQ]
35 | < 50 | C#CCNc1ncnc2sc3c(=O)n(-c4ccc(F)cc4)cnc3c12 [95ER]
36 | < 50 | C#CCNc1ncnc2sc3c(=O)n(-c4ccc5occc5c4)cnc3c12 [95ES]
37 | < 50 | Cc1ccc(-n2cnc3c(sc4nc(C)nc(N)c43)c2=O)cc1 [95ET]
38 | 150 to 1000 | COc1ccc(-n2cnc3c(sc4nc(C)nc(N)c43)c2=O)cc1 [95EU]
39 | < 50 | Cc1nc(N)c2c(n1)sc1c(=O)n(-c3ccc(Cl)cc3)cnc12 [95EV]
40 | 50 to 150 | Cc1nc(N)c2c(n1)sc1c(=O)n(-c3ccc(F)cc3)cnc12 [95EW]
41 | < 50 | Cc1nc(N)c2c(n1)sc1c(=O)n(-c3ccccc3)cnc12 [95EX]
42 | < 50 | C=C(C)CNc1ncnc2sc3c(=O)n(-c4ccc(C)cc4)cnc3c12 [95EY]

Row | IC50 [nM] | SMILES
43 | < 50 | C=C(C)CNc1ncnc2sc3c(=O)n(-c4ccc(Cl)cc4)cnc3c12 [95EZ]
44 | < 50 | C=C(C)CNc1ncnc2sc3c(=O)n(-c4ccc(Br)cc4)cnc3c12 [95FA]
45 | 50 to 150 | C=C(C)CNc1ncnc2sc3c(=O)n(-c4ccc(OC)c(F)c4)cnc3c12 [95FB]
46 | < 50 | C=C(C)CNc1ncnc2sc3c(=O)n(-c4ccc5scnc5c4)cnc3c12 [95FC]
47 | < 50 | C=C(C)CNc1ncnc2sc3c(=O)n(-c4ccc5sccc5c4)cnc3c12 [95FE]
48 | < 50 | C=C(C)CNc1ncnc2sc3c(=O)n(-c4ccc5c(c4)OCCO5)cnc3c12 [95FF]
49 | < 50 | CCCNc1ncnc2sc3c(=O)n(-c4ccc(C)cc4)cnc3c12 [95FG]
50 | < 50 | C=C(C)CNc1ncnc2sc3c(=O)n(-c4ccccc4)cnc3c12 [95FH]
51 | < 50 | C=C(C)CNc1ncnc2sc3c(=O)n(-c4ccc(F)cc4)cnc3c12 [95FI]
52 | 150 to 1000 | C=C(C)CNc1ncnc2sc3c(=O)n(-c4ccncc4)cnc3c12 [95FJ]
53 | 50 to 150 | C=C(C)CNc1ncnc2sc3c(=O)n(-c4cccc(Cl)c4)cnc3c12 [95FK]
54 | < 50 | C=C(C)CNc1ncnc2sc3c(=O)n(C4CCCC4)cnc3c12 [95FL]
55 | 50 to 150 | C#CCNc1nc(C)nc2sc3c(=O)n(-c4ccc(OC)cc4)cnc3c12 [95FM]
56 | 150 to 1000 | COc1ncnc2sc3c(=O)n(-c4ccc(C)cc4)cnc3c12 [95FN]
57 | 150 to 1000 | COc1ncnc2sc3c(=O)n(-c4ccc(Cl)cc4)cnc3c12 [95FO]
58 | > 1000 | Cc1ccc(-n2cnc3c(sc4ncnc(NCC(C)(C)C)c43)c2=O)cc1 [95FP]
59 | 150 to 1000 | Cc1ccc(-n2cnc3c(sc4ncnc(NCC5CCCO5)c43)c2=O)cc1 (stereo not drawn) [95FQ]
60 | < 50 | CSCCNc1ncnc2sc3c(=O)n(-c4ccc(C)cc4)cnc3c12 [95FR]
61 | < 50 | CSCCNc1ncnc2sc3c(=O)n(-c4ccc(Cl)cc4)cnc3c12 [95FS]
62 | < 50 | C=C(C)CNc1ncnc2sc3c(=O)n(-c4ccc(OC)cc4)cnc3c12 [95FT]
63 | 50 to 150 | COc1ccc(-n2cnc3c(sc4ncnc(N)c43)c2=O)cc1 [95FU]

Row | IC50 [nM] | SMILES
64 | 150 to 1000 | Cc1ccc(-n2cnc3c(sc4ncnc(NCc5cccs5)c43)c2=O)cc1 [95FV]
65 | > 1000 | Cc1ccc(-n2cnc3c(sc4ncnc(Nc5ccccc5)c43)c2=O)cc1 [95FW]
66 | 150 to 1000 | O=c1c2sc3ncnc(Nc4ccccc4)c3c2ncn1-c1ccc(Cl)cc1 [95FX]
67 | > 1000 | O=c1c2sc3ncnc(Nc4ccccc4)c3c2ncn1-c1ccc(F)cc1 [95FZ]
68 | > 1000 | COc1ccc(-n2cnc3c(sc4ncnc(Nc5ccccc5)c43)c2=O)cc1F [95GA]
69 | > 1000 | Cc1ccc(-n2cnc3c(sc4ncnc(Nc5ccccc5)c43)c2=O)cc1F [95GB]
70 | > 1000 | O=c1c2sc3ncnc(Nc4ccccc4)c3c2ncn1-c1ccccc1 [95GC]
71 | > 1000 | O=c1c2sc3ncnc(Nc4ccccc4)c3c2ncn1-c1ccc2ncsc2c1 [95GD]
72 | > 1000 | O=c1c2sc3ncnc(Nc4ccccc4)c3c2ncn1-c1ccc2scnc2c1 [95GE]
73 | > 1000 | O=c1c2sc3ncnc(Nc4ccccc4)c3c2ncn1-c1ccc(Br)cc1 [95GF]
74 | > 1000 | O=c1c2sc3ncnc(Nc4ccccc4)c3c2ncn1-c1ccc2c(c1)OCO2 [95GG]
75 | 50 to 150 | COc1ccc(Nc2ncnc3sc4c(=O)n(-c5ccc(Cl)cc5)cnc4c23)cc1 [95GH]
76 | 150 to 1000 | COc1ccc(Nc2ncnc3sc4c(=O)n(-c5ccccc5)cnc4c23)cc1 [95GI]
77 | 50 to 150 | COc1ccc(Nc2ncnc3sc4c(=O)n(-c5ccc(C)cc5)cnc4c23)cc1 [95GJ]
78 | > 1000 | COc1ccc(Nc2ncnc3sc4c(=O)n(-c5ccc(F)cc5)cnc4c23)cc1 [95GK]
79 | 150 to 1000 | COc1ccc(Nc2ncnc3sc4c(=O)n(C5CC5)cnc4c23)cc1 [95GL]
80 | > 1000 | CCn1cnc2c(sc3ncnc(Nc4ccc(OC)cc4)c32)c1=O [95GM]
81 | > 1000 | COc1ccc(Nc2ncnc3sc4c(=O)n(C)cnc4c23)cc1 [95GN]
82 | > 1000 | COc1ccc(-n2cnc3c(sc4ncnc(OC)c43)c2=O)cc1 [95GO]
83 | < 50 | C=CCNc1ncnc2sc3c(=O)n(-c4ccc(OC)cc4)cnc3c12 [95GP]
84 | 150 to 1000 | COc1ccc(-n2cnc3c(sc4ncnc(NCc5ccco5)c43)c2=O)cc1 [95GQ]

same assay, conditions: against Quisqualate 1 μM (EC80), FLIPR calcium mobilization, read-out: mGluR1 IC50

Row | IC50 [nM] | SMILES
85 | 1.94 | CN(c1ncnc2sc3c(=O)n(-c4ccc(Br)cc4)cnc3c12)C1CC1 [95DV]

same assay, conditions: against Quisqualate 1 μM (EC80), class symbols, read-out: mGIuR 1 IC50

Row | IC50 [nM] | SMILES
86 | < 50 | CN(C)c1ncnc2sc3c(=O)n(-c4ccc5ncsc5c4)cnc3c12 [95C]
87 | < 50 | CN(C)c1ncnc2sc3c(=O)n(-c4ccc5c(c4)CCO5)cnc3c12 [95E]
88 | < 50 | CCN(C)c1ncnc2sc3c(=O)n(-c4ccc(C)cc4)cnc3c12 [95H]
89 | < 50 | CCN(C)c1ncnc2sc3c(=O)n(-c4ccc5ncsc5c4)cnc3c12 [95I]
90 | < 50 | CCN(C)c1ncnc2sc3c(=O)n(-c4ccc5c(c4)OCC5)cnc3c12 [95K]
91 | < 50 | CCN(C)c1ncnc2sc3c(=O)n(-c4ccc(SC)cc4)cnc3c12 [95L]
92 | 50 to 150 | CCN(C)c1ncnc2sc3c(=O)n(-c4cccnc4)cnc3c12 [95M]
93 | < 50 | Cc1ccc(-n2cnc3c(sc4ncnc(N(C)C)c43)c2=O)cn1 [95O]
94 | < 50 | CCNc1ncnc2sc3c(=O)n(-c4ccc(C)cc4)cnc3c12 [95P]
95 | < 50 | CN(C)c1ncnc2sc3c(=O)n(-c4ccc(OC(F)F)cc4)cnc3c12 [95Q]
96 | < 50 | CCN(C)c1ncnc2sc3c(=O)n(-c4ccc(OC(F)(F)F)cc4)cnc3c12 [95R]
97 | < 50 | CCN(C)c1ncnc2sc3c(=O)n(-c4ccc(OC(F)F)cc4)cnc3c12 [95T]
98 | < 50 | CCN(C)c1ncnc2sc3c(=O)n(-c4ccc(C)nc4)cnc3c12 [95U]
99 | 150 to 1000 | CCNc1ncnc2sc3c(=O)n(-c4ccc(OC(F)(F)F)cc4)cnc3c12 [95V]
